Patent US20240398825A1 (NANJING DELOVA BIOTECH CO. LTD., priority 2018, published 2024)
In brackets after ≈: the same amount, converted by molar mass.

Legend:
[1] = cited from earlier work
physchem = settings: 25 °C, water, thermodynamic from solid
[2] = Solubility study of meloxicam in injectable solution; assay type: physicochemical; settings: aqueous with cosolvent or surfactant or cyclodextrin; PEG 400 300 mg/mL, pH 7.7-8.0 (NaOH/citric acid)
[3] = Solubility of meloxicam in PEG 200, PEG300 or PEG600; assay type: physicochemical; settings: 25 °C, organic solvent or mixture, thermodynamic from solid, read-out: Solubility (shaking at 25° C. for 24 h)
[4] = cited from earlier work; remark: listed apart in the source
[5] = Solubility of meloxicam in organic base or alkaline amino acid solutions (Comparative Example A4); assay type: physicochemical; settings: for solubility at 24 h: 25 °C, shaking at 25° C. for 24 h, n = 3

**Q.** With Cc1cnc(NC(=O)C2=C(O)c3ccccc3S(=O)(=O)N2C)s1 [Meloxicam, 4-hydroxy-2-methyl-N-(5-methyl-2-thiazolyl)-2H-1,2-benzothiazine-3-carboxamide-1,1-dioxide] as the molecule, how does the “maximum solubility in pure PEG 400” value ([1]; Zaira J. Cárdenas et al.) read?
**A.** The value was 9.2 mg/mL.

**Q.** And the “solubility of meloxicam in pure PEG 400” value ([1]; found by Neelam Seeder et al.)?
**A.** Its value is 3.763 mg/mL.

**Q.** And the solubility at 24 h (physchem)?
**A.** Its solubility at 24 h is 0.02 mg/mL (≈ 0.0569 mM).

**Q.** And the solubility [2]?
**A.** The solubility was 60 mg/mL (≈ 171 mM).

**Q.** And the solubility at 24 h ([3]; Cosolvent PEG200)?
**A.** The solubility at 24 h was 3.6 mg/mL (≈ 10.2 mM).

**Q.** And the solubility at 24 h ([3]; Cosolvent PEG300)?
**A.** The solubility at 24 h was 2.81 mg/mL (≈ 8 mM).

**Q.** What about the solubility at 24 h ([3]; Cosolvent PEG600) of the same molecule?
**A.** The solubility at 24 h was 3.18 mg/mL (≈ 9.05 mM).

**Q.** What about the solubility in water ([4]; 25° C.) of the same molecule?
**A.** The solubility in water was 0.003414 mg/mL (≈ 0.00972 mM).

**Q.** What about the “solubility in chloroform, acetone and ethanol” value [4] of the same molecule?
**A.** Its value is “slightly soluble”.

**Q.** And the solubility at 24 h ([5]; Tris solution, aqueous buffer, thermodynamic from solid, Tris 5 mg/mL)?
**A.** Its solubility at 24 h is 5.54 mg/mL (≈ 15.8 mM).

**Q.** And the solubility at 24 h ([5]; Tris solution, aqueous buffer, thermodynamic from solid, Tris 10 mg/mL)?
**A.** The solubility at 24 h was 9.07 mg/mL (≈ 25.8 mM).

**Q.** What about the solubility at 24 h ([5]; Tris solution, aqueous buffer, thermodynamic from solid, Tris 15 mg/mL) of the same molecule?
**A.** The solubility at 24 h was 11.4 mg/mL (≈ 32.4 mM).

**Q.** What about the solubility at 24 h ([5]; Tris solution, aqueous buffer, thermodynamic from solid, Tris 20 mg/mL) of the same molecule?
**A.** The solubility at 24 h was 14.3 mg/mL (≈ 40.6 mM).

**Q.** What about the solubility at 24 h ([5]; Tris solution, aqueous buffer, thermodynamic from solid, Tris 30 mg/mL) of the same molecule?
**A.** Its solubility at 24 h is 18.3 mg/mL (≈ 52.1 mM).

**Q.** What about the “stability of the solutions in organic base or basic amino acid” value ([5]; after standing overnight at room temperature) of the same molecule?
**A.** Its value is “Crystals were precipitated”.

**Q.** What about the solubility at 24 h ([5]; arginine solution, aqueous buffer, thermodynamic from solid, Arginine 7 mg/mL) of the same molecule?
**A.** The solubility at 24 h was 11.2 mg/mL (≈ 32 mM).

**Q.** And the solubility at 24 h ([5]; arginine solution, aqueous buffer, thermodynamic from solid, Arginine 14 mg/mL)?
**A.** The solubility at 24 h was 11.6 mg/mL (≈ 32.9 mM).

**Q.** And the solubility at 24 h ([5]; arginine solution, aqueous buffer, thermodynamic from solid, Arginine 20 mg/mL)?
**A.** The solubility at 24 h was 11.6 mg/mL (≈ 33 mM).

**Q.** What about the solubility at 24 h ([5]; arginine solution, aqueous buffer, thermodynamic from solid, Arginine 30 mg/mL) of the same molecule?
**A.** Its solubility at 24 h is 12.8 mg/mL (≈ 36.4 mM).

**Q.** What about the solubility at 24 h ([5]; arginine solution, aqueous buffer, thermodynamic from solid, Arginine 40 mg/mL) of the same molecule?
**A.** The solubility at 24 h was 14.2 mg/mL (≈ 40.5 mM).

**Q.** What about the solubility ([5]; high concentration organic base or basic amino acid solution, aqueous buffer, thermodynamic from solid, solubility of meloxicam in a high concentration organic base or basic amino acid, high concentration organic base or basic amino acid) of the same molecule?
**A.** The solubility was no less than 10 mg/mL.

**Q.** What about the solubility at 24 h ([5]; lysine solution, aqueous buffer, thermodynamic from solid, Lysine 6 mg/mL) of the same molecule?
**A.** The solubility at 24 h was 10.5 mg/mL (≈ 29.7 mM).

**Q.** What about the solubility at 24 h ([5]; lysine solution, aqueous buffer, thermodynamic from solid, Lysine 19 mg/mL) of the same molecule?
**A.** The solubility at 24 h was 29.8 mg/mL (≈ 84.7 mM).

**Q.** And the solubility at 24 h ([5]; lysine solution, aqueous buffer, thermodynamic from solid, Lysine 24 mg/mL)?
**A.** Its solubility at 24 h is 35.9 mg/mL (≈ 102 mM).

**Q.** What about the solubility at 24 h ([5]; meglumine solution, aqueous buffer, thermodynamic from solid, Meglumine 5 mg/mL) of the same molecule?
**A.** Its solubility at 24 h is 8.01 mg/mL (≈ 22.8 mM).

**Q.** And the solubility at 24 h ([5]; meglumine solution, aqueous buffer, thermodynamic from solid, Meglumine 10 mg/mL)?
**A.** The solubility at 24 h was 17.8 mg/mL (≈ 50.7 mM).

**Q.** What about the solubility at 24 h ([5]; meglumine solution, aqueous buffer, thermodynamic from solid, Meglumine 15 mg/mL) of the same molecule?
**A.** Its solubility at 24 h is 24.6 mg/mL (≈ 70.1 mM).
